Source: patent US4148896A, “Antidepressant combination” (E. I. Du Pont de Nemours and Company, priority 1978, dated 1979)
Read-outs that look alike come from different tables or passages of the source.

Tested on: tryptamine-induced stereotypies and hind limb paralysis
Assay: Tryptamine potentiation test
Format: in vivo, mice
Details: for ED50: Mus musculus, po
Experimental: […] […] (60 Mg/kg of tryptamine alone causes this syndrome but it lasts for less than a minute, usually only a few seconds.) The data were analyzed quantally and ED50's calculated.

## CCc1c(C)[nH]c2c1C(=O)C(CN1CCOCC1)CC2 (stereo not shown) [Molindone, 3-ethyl-6,7-dihydro-2-methyl-5-(morpholinomethyl)indol-4-(5H)-one]
2.5 mg/kg p.o., 4 Hrs., N=10
  HEAD TWITCH (mice responding): 0
  HIND LIMB PARALYSIS (mice responding): 0
4 Hrs.
  ED50, HIND LIMB PARALYSIS: 8.6 mg/kg p.o.
5. mg/kg p.o., 4 Hrs., N=10
  HEAD TWITCH (mice responding): 0
  HIND LIMB PARALYSIS (mice responding): 1
6 Hrs.
  ED50, HEAD TWITCH: 15 mg/kg p.o.
10. mg/kg p.o., 1 Hr., N=10
  HEAD TWITCH (mice responding): 1
  HIND LIMB PARALYSIS (mice responding): 3
10. mg/kg p.o., 2 Hrs., N=10
  HEAD TWITCH (mice responding): 2
  HIND LIMB PARALYSIS (mice responding): 8
10. mg/kg p.o., 4 Hrs., N=20
  HEAD TWITCH (mice responding): 1
  HIND LIMB PARALYSIS (mice responding): 13
10. mg/kg p.o., 6 Hrs., N=10
  HEAD TWITCH (mice responding): 0
  HIND LIMB PARALYSIS (mice responding): 7
10. mg/kg p.o., 24 Hrs., N=10
  HEAD TWITCH (mice responding): 0
  HIND LIMB PARALYSIS (mice responding): 0
20. mg/kg p.o., 1 Hr., N=10
  HEAD TWITCH (mice responding): 3
  HIND LIMB PARALYSIS (mice responding): 9
20. mg/kg p.o., 2 Hrs., N=10
  HEAD TWITCH (mice responding): 3
  HIND LIMB PARALYSIS (mice responding): 10
20. mg/kg p.o., 4 Hrs., N=20
  HEAD TWITCH (mice responding): 17
  HIND LIMB PARALYSIS (mice responding): 20
20. mg/kg p.o., 6 Hrs., N=10
  HEAD TWITCH (mice responding): 9
  HIND LIMB PARALYSIS (mice responding): 10
20. mg/kg p.o., 24 Hrs., N=10
  HEAD TWITCH (mice responding): 0
  HIND LIMB PARALYSIS (mice responding): 0
40. mg/kg p.o., 1 Hr., N=10
  HEAD TWITCH (mice responding): 5
  HIND LIMB PARALYSIS (mice responding): 10
40. mg/kg p.o., 2 Hrs., N=10
  HEAD TWITCH (mice responding): 5
  HIND LIMB PARALYSIS (mice responding): 10
40. mg/kg p.o., 4 Hrs., N=20
  HEAD TWITCH (mice responding): 19
  HIND LIMB PARALYSIS (mice responding): 20
40. mg/kg p.o., 6 Hrs., N=10
  HEAD TWITCH (mice responding): 9
  HIND LIMB PARALYSIS (mice responding): 10
40. mg/kg p.o., 24 Hrs., N=10
  HEAD TWITCH (mice responding): 0
  HIND LIMB PARALYSIS (mice responding): 0
80. mg/kg p.o., 1 Hr., N=10
  HEAD TWITCH (mice responding): 0
  HIND LIMB PARALYSIS (mice responding): 4
80. mg/kg p.o., 2 Hrs., N=10
  HEAD TWITCH (mice responding): 1
  HIND LIMB PARALYSIS (mice responding): 4
80. mg/kg p.o., 4 Hrs., N=10
  HEAD TWITCH (mice responding): 3
  HIND LIMB PARALYSIS (mice responding): 6
80. mg/kg p.o., 6 Hrs., N=10
  HEAD TWITCH (mice responding): 6
  HIND LIMB PARALYSIS (mice responding): 10
80. mg/kg p.o., 24 Hrs., N=10
  HEAD TWITCH (mice responding): 0
  HIND LIMB PARALYSIS (mice responding): 0
160. mg/kg p.o., 1 Hr., N=10
  HEAD TWITCH (mice responding): 0
  HIND LIMB PARALYSIS (mice responding): 1
160. mg/kg p.o., 2 Hrs., N=10
  HEAD TWITCH (mice responding): 0
  HIND LIMB PARALYSIS (mice responding): 4
160. mg/kg p.o., 4 Hrs., N=10
  HEAD TWITCH (mice responding): 0
  HIND LIMB PARALYSIS (mice responding): 2
160. mg/kg p.o., 6 Hrs., N=10
  HEAD TWITCH (mice responding): 0
  HIND LIMB PARALYSIS (mice responding): 4
160. mg/kg p.o., 24 Hrs., N=10
  HEAD TWITCH (mice responding): 2
  HIND LIMB PARALYSIS (mice responding): 2
1 Hr., read-out: ED50, HEAD TWITCH
  ED50: 40 mg/kg
1 Hr., read-out: ED50, HIND LIMB PARALYSIS
  ED50: 13 mg/kg
2 Hrs., read-out: ED50, HEAD TWITCH
  ED50: 40 mg/kg
2 Hrs., read-out: ED50, HIND LIMB PARALYSIS
  ED50: < 10 mg/kg
4 Hrs., read-out: ED50, HEAD TWITCH
  ED50: 16.7 mg/kg
4 Hrs., read-out: ED50, HIND LIMB PARALYSIS
  ED50: 8.6 mg/kg
6 Hrs., read-out: ED50, HEAD TWITCH
  ED50: 15 mg/kg
6 Hrs., read-out: ED50, HIND LIMB PARALYSIS
  ED50: < 10 mg/kg
24 Hrs., read-out: ED50, HEAD TWITCH
  ED50: > 160 mg/kg
24 Hrs., read-out: ED50, HIND LIMB PARALYSIS
  ED50: > 160 mg/kg
oral, tryptamine potentiation
  peak time, head twitch: 6 h
